Test results: paper PMC7794297

What was measured:
[1] = molecular target: bovine serum albumin (BSA) (Bos taurus, UniProt P02769); test: BSA-directed DCL of building blocks 1-4; set-up: purchased Roche; key to NC of RPA: normalized change of relative peak area (RPA) vs blank DCL
glucose oxidase (GOx) [2] = molecular target: T1, glucose oxidase (GOx) (Aspergillus niger, UniProt P13006); test: GOx activity assay, glucose oxidase-horseradish peroxidase coupled system with o-dianisidine; assay type: biochemical; set-up: purchased Sigma Aldrich; conditions: for 1/Vo: Lineweaver-Burk;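 as to GOx activity: GOx activity followed by o-dianisidine absorbance at 500 nm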
glucose oxidase (GOx) [3] = molecular target: T1, glucose oxidase (GOx); test: Tryptophan fluorescence emission binding experiments with GOx; set-up: purchased Sigma Aldrich; conditions: for Emmsion average / Normalized Fluorescence: Supplementary Figure 52 b
[4] = Solubility under DCL conditions; assay type: physicochemical; conditions: aqueous buffer; basic pH and 2.5% (v/v) DMSO
From the text: reaction of compound 3 to (3)2 in the presence of selenocystine and DMSO. The accelerating role of DMSO wa s disca rded by running control experim ents containing up to 20% (v/v) DMSO, which is much larger than the amount of this co-solvent used in our standard conditions (2.5% (v/v) DMSO).
1) All the amino acids shown in Figure 3 have D-stereochemistry. I guess this is an error, please amend that. The same issue states for the structures in Figure 1.
Thank you. It has been corrected.
2) For every mention to % of a reagent, especially in the methods part, it should be clearly stated if this is volume, weight of molar percent, and with respect to what.
Thank you. It has been included.
3) Some of the disulfides formed in the libraries (i.e. (4)2) are expected to be poorly soluble in buffered water. […] When quantifying species in a mixture, solubility problems must be carefully […]
1.The main problem of the MS is that the authors only describe the rate enhancement by comparing if the reactions have reached equilibrium after 24 h or 96 h, as characterised by HPLC. It is shown for different ratios of the catalyst, but it doesn’t provide any quantitative measure of the rate acceleration. […] The authors should provide quantitative characterisation of the rate constants, starting with a simple homodimerisation of thiols, as it is done in ref. 15. […]

[5] = Spermidine-templated DCL of building blocks 1-4;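 also: Spermidine-templated dynamic combinatorial library, normalized change of RPA compared between Secox-free and Secox-containing libraries, DCC runs done in triplicate, values given as mean ± SD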
glucose oxidase (GOx) [6] = molecular target: T1, glucose oxidase (GOx); test: Glucose oxidase-directed DCL of building blocks 1-4; set-up: purchased Sigma Aldrich; unit not given here; conditions: blank vs GOx template DCL; GOx 57 μM, Secox 5% mol, 24 h
Experimental: The equilibration of the DCL was completed after 24 h (Fig. 9) and the oligomers were identified by HPLC-MS (Supplementary Figs. 4–20). The precise composition of the DCL (with and without GOx), was assessed by measuring the relative peak area (RPA). The normalized change of RPA was used to quantify the protein influence in the final DCL showing the amplification of the dimer of compound 4, that is (4)2 (Fig. 9b). Control experiments were set up to verify that the amplification of the dimer was not due to unspecific binding. Firstly the GOx was replaced by the bovine serum albumin (BSA). A stability study of BSA under the DCL conditions was performed using a fluorescence technique confirming the BSA stability in the DCL experiment (Supplementary Fig. 48)[50].
The DCL was stabilized for 24 h at 6 °C. Then, GOx was removed by ultracentrifugation through an Amicon ultra-filter (100 KDa). HPLC analysis was performed.

T1 sequence (P13006 17-605): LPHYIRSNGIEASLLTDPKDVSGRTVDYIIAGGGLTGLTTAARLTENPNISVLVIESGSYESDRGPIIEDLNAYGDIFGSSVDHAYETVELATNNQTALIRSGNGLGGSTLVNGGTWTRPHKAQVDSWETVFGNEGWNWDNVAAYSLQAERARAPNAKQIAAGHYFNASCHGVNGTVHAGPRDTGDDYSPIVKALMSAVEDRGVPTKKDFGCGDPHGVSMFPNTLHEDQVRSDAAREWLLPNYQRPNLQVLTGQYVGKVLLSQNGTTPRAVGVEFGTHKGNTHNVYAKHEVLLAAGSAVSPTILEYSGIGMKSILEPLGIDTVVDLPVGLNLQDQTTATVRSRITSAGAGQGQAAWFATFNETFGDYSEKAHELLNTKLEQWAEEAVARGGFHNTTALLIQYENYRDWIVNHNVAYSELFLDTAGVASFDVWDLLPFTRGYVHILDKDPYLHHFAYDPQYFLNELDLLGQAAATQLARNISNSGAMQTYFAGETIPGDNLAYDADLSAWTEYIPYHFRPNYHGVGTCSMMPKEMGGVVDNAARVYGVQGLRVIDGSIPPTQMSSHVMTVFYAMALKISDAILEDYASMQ
Chain of bovine serum albumin (BSA) (P02769 25-607): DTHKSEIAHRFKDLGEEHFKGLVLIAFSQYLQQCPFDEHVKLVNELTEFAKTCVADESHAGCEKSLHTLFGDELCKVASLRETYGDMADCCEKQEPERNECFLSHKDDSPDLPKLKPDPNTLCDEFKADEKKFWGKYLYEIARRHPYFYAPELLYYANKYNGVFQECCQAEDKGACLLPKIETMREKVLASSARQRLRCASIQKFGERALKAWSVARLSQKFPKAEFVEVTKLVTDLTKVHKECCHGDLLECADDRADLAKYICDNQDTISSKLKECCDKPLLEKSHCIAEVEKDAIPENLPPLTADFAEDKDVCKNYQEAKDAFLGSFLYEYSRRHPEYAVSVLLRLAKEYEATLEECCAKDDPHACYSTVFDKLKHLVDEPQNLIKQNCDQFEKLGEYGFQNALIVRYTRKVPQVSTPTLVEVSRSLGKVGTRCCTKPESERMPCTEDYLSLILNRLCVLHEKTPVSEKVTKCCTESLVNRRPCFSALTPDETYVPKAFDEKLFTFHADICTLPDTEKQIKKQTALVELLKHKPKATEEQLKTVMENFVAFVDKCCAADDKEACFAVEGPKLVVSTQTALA

c1ccc(SSc2ccccc2)cc1 [(4)2]
amplification in the BSA-templated DCL ([1]; GOx replaced by BSA): did not amplify | NC of RPA ([1]; blank vs BSA-DCL, BSA 57 µM, Secox 5% mol, 24 h): 0,02 | GOx Activity (glucose oxidase (GOx) [2]; IC50 data, inhibitor 1.4 nM, glucose 10 mM): 0.07285 min⁻¹ | GOx Activity (glucose oxidase (GOx) [2]; IC50 data, inhibitor 3.5 nM, glucose 10 mM): 0.0762 min⁻¹ | GOx Activity (glucose oxidase (GOx) [2]; IC50 data, inhibitor 7.0 nM, glucose 10 mM): 0.0665 min⁻¹ | GOx Activity (glucose oxidase (GOx) [2]; IC50 data, inhibitor 14.0 nM, glucose 10 mM): 0.0785 min⁻¹ | GOx Activity (glucose oxidase (GOx) [2]; IC50 data, inhibitor 70.0 nM, glucose 10 mM): 0.0871 min⁻¹ | GOx Activity (glucose oxidase (GOx) [2]; IC50 data, inhibitor 140.0 nM, glucose 10 mM): 0.08235 min⁻¹ | GOx Activity (glucose oxidase (GOx) [2]; IC50 data, inhibitor 700.0 nM, glucose 10 mM): 0.0656 min⁻¹ | GOx Activity (glucose oxidase (GOx) [2]; IC50 data, inhibitor 1400.0 nM, glucose 10 mM): 0.0557 min⁻¹ | GOx Activity (glucose oxidase (GOx) [2]; IC50 data, inhibitor 7000.0 nM, glucose 10 mM): 0.0417 min⁻¹ | GOx Activity (glucose oxidase (GOx) [2]; IC50 data, inhibitor 140000.0 nM, glucose 10 mM): 0.0376 min⁻¹ | GOx Activity (glucose oxidase (GOx) [2]; Ki data, inhibitor 7,0·10^-7 M, [Glucose] 0.0002 M): 0.0019 min⁻¹ | GOx Activity (glucose oxidase (GOx) [2]; Ki data, inhibitor 7,0·10^-7 M, [Glucose] 0.0007 M): 0.0067 min⁻¹ | GOx Activity (glucose oxidase (GOx) [2]; Ki data, inhibitor 7,0·10^-7 M, [Glucose] 0.0014 M): 0.01145 min⁻¹ | GOx Activity (glucose oxidase (GOx) [2]; Ki data, inhibitor 7,0·10^-7 M, [Glucose] 0.0028 M): 0.02218 min⁻¹ | GOx Activity (glucose oxidase (GOx) [2]; Ki data, inhibitor 7,0·10^-7 M, [Glucose] 0.004 M): 0.02548 min⁻¹ | GOx Activity (glucose oxidase (GOx) [2]; Ki data, inhibitor 7·10^-8 M, [Glucose] 0.0002 M): 0.0021 min⁻¹ | GOx Activity (glucose oxidase (GOx) [2]; Ki data, inhibitor 7·10^-8 M, [Glucose] 0.0007 M): 0.01063 min⁻¹ | GOx Activity (glucose oxidase (GOx) [2]; Ki data, inhibitor 7·10^-8 M, [Glucose] 0.0014 M): 0.01978 min⁻¹ | GOx Activity (glucose oxidase (GOx) [2]; Ki data, inhibitor 7·10^-8 M, [Glucose] 0.0028 M): 0.03193 min⁻¹ | GOx Activity (glucose oxidase (GOx) [2]; Ki data, inhibitor 7·10^-8 M, [Glucose] 0.004 M): 0.0385 min⁻¹ | GOx Activity (glucose oxidase (GOx) [2]; Ki data, inhibitor 14·10^-7 M, [Glucose] 0.0002 M): 0.00175 min⁻¹ | GOx Activity (glucose oxidase (GOx) [2]; Ki data, inhibitor 14·10^-7 M, [Glucose] 0.0007 M): 0.006225 min⁻¹ | GOx Activity (glucose oxidase (GOx) [2]; Ki data, inhibitor 14·10^-7 M, [Glucose] 0.0014 M): 0.013 min⁻¹ | GOx Activity (glucose oxidase (GOx) [2]; Ki data, inhibitor 14·10^-7 M, [Glucose] 0.0028 M): 0.01805 min⁻¹ | GOx Activity (glucose oxidase (GOx) [2]; Ki data, inhibitor 14·10^-7 M, [Glucose] 0.004 M): 0.02392 min⁻¹ | GOx Activity (glucose oxidase (GOx) [2]; Ki data, inhibitor 14·10^-8 M, [Glucose] 0.0002 M): 0.001875 min⁻¹ | GOx Activity (glucose oxidase (GOx) [2]; Ki data, inhibitor 14·10^-8 M, [Glucose] 0.0007 M): 0.008475 min⁻¹ | GOx Activity (glucose oxidase (GOx) [2]; Ki data, inhibitor 14·10^-8 M, [Glucose] 0.0014 M): 0.0135 min⁻¹ | GOx Activity (glucose oxidase (GOx) [2]; Ki data, inhibitor 14·10^-8 M, [Glucose] 0.0028 M): 0.0304 min⁻¹ | GOx Activity (glucose oxidase (GOx) [2]; Ki data, inhibitor 14·10^-8 M, [Glucose] 0.004 M): 0.0395 min⁻¹ | 1/Vo (glucose oxidase (GOx) [2]; inhibitor 0,7 µM, 1/[glucose] 250 M-1): 41.8673 min | 1/Vo (glucose oxidase (GOx) [2]; inhibitor 0,7 µM, 1/[glucose] 357 M-1): 59.4498 min | 1/Vo (glucose oxidase (GOx) [2]; inhibitor 0,7 µM, 1/[glucose] 714 M-1): 110.461 min | 1/Vo (glucose oxidase (GOx) [2]; inhibitor 0,7 µM, 1/[glucose] 1430 M-1): 185.984 min | 1/Vo (glucose oxidase (GOx) [2]; inhibitor 0,7 µM, 1/[glucose] 5000 M-1): 603.288 min | 1/Vo (glucose oxidase (GOx) [2]; inhibitor 1,4 µM, 1/[glucose] 250 M-1): 56.7644 min | 1/Vo (glucose oxidase (GOx) [2]; inhibitor 1,4 µM, 1/[glucose] 357 M-1): 75.4986 min | 1/Vo (glucose oxidase (GOx) [2]; inhibitor 1,4 µM, 1/[glucose] 714 M-1): 81.9727 min | 1/Vo (glucose oxidase (GOx) [2]; inhibitor 1,4 µM, 1/[glucose] 1430 M-1): 178.284 min | 1/Vo (glucose oxidase (GOx) [2]; inhibitor 1,4 µM, 1/[glucose] 5000 M-1): 687.292 min | Inhibitor Type (glucose oxidase (GOx) [2]; Lineweaver–Burk plots): non-competitive | IC50 (glucose oxidase (GOx) [2]; [Glucose] 10 mM, 37 °C, sodium acetate buffer pH 5.1): 1800 ± 100 nM | Ki (glucose oxidase (GOx) [2]; non-competitive inhibition model, 37 °C, sodium acetate buffer pH 5.1): 1700 ± 200 nM | Emmsion average (glucose oxidase (GOx) [3]; [(4)2] 40 μM): 2487781 | Normalized Fluorescence (glucose oxidase (GOx) [3]; [(4)2] 40 μM): 0.09492 | Emmsion average (glucose oxidase (GOx) [3]; [(4)2] 80 μM): 2153387 | Normalized Fluorescence (glucose oxidase (GOx) [3]; [(4)2] 80 μM): 0.2166 | Emmsion average (glucose oxidase (GOx) [3]; [(4)2] 400 μM): 1756334 | Normalized Fluorescence (glucose oxidase (GOx) [3]; [(4)2] 400 μM): 0.361 | Emmsion average (glucose oxidase (GOx) [3]; [(4)2] 2000 μM): 1449655 | Normalized Fluorescence (glucose oxidase (GOx) [3]; [(4)2] 2000 μM): 0.4726 | Emmsion average (glucose oxidase (GOx) [3]; [(4)2] 4000 μM): 1064446 | Normalized Fluorescence (glucose oxidase (GOx) [3]; [(4)2] 4000 μM): 0.6127 | Emmsion average (glucose oxidase (GOx) [3]; [(4)2] 8000 μM): 516610 | Normalized Fluorescence (glucose oxidase (GOx) [3]; [(4)2] 8000 μM): 0.8121 | Emmsion average (glucose oxidase (GOx) [3]; [(4)2] 16000 μM): 236911 | Normalized Fluorescence (glucose oxidase (GOx) [3]; [(4)2] 16000 μM): 0.9138 | Kd (glucose oxidase (GOx) [3]; apparent dissociation constant, GOx 0.8 µM, Tris pH 7.8, 5% DMSO, 10 °C, read-out: Kd'): 110000 ± 10000 nM | solubility [4]: ≤ 2000 µM | Normalized Change of RPA (NC) ([5]; 0% Secox): -0,49 | Normalized Change of RPA (NC) ([5]; 5% Secox): -0,50 | NC of RPA (glucose oxidase (GOx) [6]): 39,73
